# Values of other authors, collected in patent publication EP4656183A1, “TIRZEPATIDE COMPOSITIONS AND PREPARATION METHOD” (Galenicum Health SLU, priority 2024, dated 2025).
# Conditions: buffer; several values = successive pKa values
compound,measurement,value
O=S(=O)(O)CCN1CCN(CCO)CC1 [HEPES],pKa,~ 7.5
